{"source": "patent US4007267A", "about": "“Antibiotic B-98891” (priority 1974, dated 1977)", "key": {"[1]": {"system": "powdery mildew of pepper", "assay": "Control test of powdery mildew of pepper"}, "[2]": {"system": "Sphaerotheca fuliginea Pollacci", "assay": "Control effect against drug-resistant powdery mildew on cucumber", "details": "40 ppm, 7 days"}, "[3]": {"system": "Cochliobolus miyabeanus IFO-5277", "assay": "Antimicrobial spectrum (in vitro), agar dilution and diffusion methods", "type": "cell-based", "details": "medium A, 28 °C, time 40"}, "[4]": {"system": "powdery mildew of tobacco plant", "assay": "Control test of powdery mildew of tobacco plant"}, "[5]": {"assay": "Acute toxicity in rats"}, "[6]": {"system": "certain gram-positive bacteria, gram-negative bacteria, phytopathogenic fungi and certain yeasts", "assay": "Antimicrobial spectrum, summary", "type": "cell-based", "details": "in vitro", "experimental": "The antimicrobial spectrum of the antibiotic B-98891 as measured by the agar dilution and diffusion methods is shown in Table 3. The \"diameter of inhibition zone\" in the table represents the diameter of the inhibition zone formed around a paper disc(7 mm. in diameter) immersed in a 5000 μg/ml. solution of the present antibiotic."}, "[7]": {"system": "Saccharomyces cerevisiae IFO-0209", "assay": "Antimicrobial spectrum (in vitro), agar dilution and diffusion methods", "type": "cell-based", "details": "medium A, 28 °C, time 40"}, "[8]": {"system": "Phytophthora infestans (Montagne) de Bary", "type": "in vivo"}, "[9]": {"system": "Japanese killifish", "assay": "Fish toxicity test", "type": "in vivo", "details": "20 ppm, 7 days observation"}, "[10]": {"system": "powdery mildew of rose", "assay": "Control test of the powdery mildew of rose (Super Star)", "type": "in vivo", "experimental": "For this test, rose (Rosa spp.) plants were grown in pots at a green-house.As test plants (forma species: Super Star and Arlene Francis) were used in groups of 3 pots per treatment. […] The number of diseased leaflets on three branches per pot was investigated 7 days after the third application and the percentage of diseased leaflets relative to the total number of leaflets investigated was calculated."}}, "note": "“Also recorded” adds a separate entry of the source. Read-outs that look alike come from different tables or passages of the source."}
{"molecule": "NC(N)=NCC(O)CC(O)(C(=O)O)[C@H]1O[C@@H](n2cc(CO)c(N)nc2=O)C=C[C@@H]1NC(=O)[C@@H](N)CO", "note": "(some centres unmarked) [B-98891]", "values": [{"measurement": "Percent area of the lesion", "setting": "[1]; 80 ppm, 7 days", "value": 7.9, "unit": "%"}, {"measurement": "Percent area of the lesion", "setting": "[1]; 80 ppm, 10 days", "value": 10.3, "unit": "%"}, {"measurement": "Percent area of the lesion", "setting": "[1]; 160 ppm, 7 days", "value": 5.0, "unit": "%"}, {"measurement": "Percent area of the lesion", "setting": "[1]; 160 ppm, 10 days", "value": 4.6, "unit": "%"}, {"measurement": "Percent area of lesion", "setting": "[2]; inoculum: control (untreated)", "value": 15.8, "unit": "%"}, {"measurement": "Percent area of lesion", "setting": "[2]; inoculum: lesions after application of B-98891 (80ppm)", "value": 18.3, "unit": "%"}, {"measurement": "Percent area of lesion", "setting": "[2]; inoculum: lesions after application of Benlate WP (250 ppm)", "value": 21.7, "unit": "%"}, {"measurement": "Minimal inhibitory concentration", "setting": "[3]", "value": "> 500", "unit": "µg/mL"}, {"measurement": "Diameter of inhibition zone", "setting": "[3]; paper disc 7 mm, 5000 μg/ml", "value": 15, "unit": "mm"}, {"measurement": "Percent area of lesion", "setting": "[4]; 40 ppm, 9 days", "value": 11.6, "unit": "%"}, {"measurement": "Percent area of lesion", "setting": "[4]; 40 ppm, 15 days", "value": 20.4, "unit": "%"}, {"measurement": "Percent area of lesion", "setting": "[4]; 80 ppm, 9 days", "value": 10.0, "unit": "%"}, {"measurement": "Percent area of lesion", "setting": "[4]; 80 ppm, 15 days", "value": 13.2, "unit": "%"}, {"measurement": "Percent area of lesion", "setting": "[4]; 160 ppm, 9 days", "value": 6.0, "unit": "%"}, {"measurement": "Percent area of lesion", "setting": "[4]; 160 ppm, 15 days", "value": 8.5, "unit": "%"}, {"measurement": "toxicity in rats (summary)", "setting": "[5]", "value": "mild"}, {"measurement": "LD50", "setting": "[5]; intravenous", "value": "> 500", "unit": "mg/kg"}, {"measurement": "LD50", "setting": "[5]; oral", "value": "> 2000", "unit": "mg/kg"}, {"measurement": "antimicrobial activity", "setting": "[6]", "value": "weakly active"}, {"measurement": "Minimal inhibitory concentration", "setting": "[7]", "value": "> 500", "unit": "µg/mL"}, {"measurement": "Diameter of inhibition zone", "setting": "[7]; paper disc 7 mm, 5000 μg/ml", "value": 12, "unit": "mm"}, {"measurement": "Degree of sporulation", "setting": "[8]; 250 ppm", "value": "Moderate"}, {"measurement": "Percent area of lesions", "setting": "[8]; 250 ppm", "value": 100, "unit": "%"}, {"measurement": "Degree of sporulation", "setting": "[8]; 500 ppm", "value": "None"}, {"measurement": "Percent area of lesions", "setting": "[8]; 500 ppm", "value": 0, "unit": "%"}, {"measurement": "fish toxicity", "setting": "[9]", "value": "no toxic effect; also recorded: substantially harmless to fish"}, {"measurement": "Percent of diseased leaflet", "setting": "[10]; 40 ppm", "value": 5.6, "unit": "%"}, {"measurement": "Percent of diseased leaflet", "setting": "[10]; 80 ppm", "value": 3.2, "unit": "%"}, {"measurement": "Percent of diseased leaflet", "setting": "[10]; 160 ppm", "value": 2.6, "unit": "%"}]}
